Source: patent US7592363B2, “Indazoles” (Wyeth, priority 2004, dated 2009)

melting point [°C] | SMILES
125 | Fc1ccc(-c2c3cccc(C(F)(F)F)c3nn2Cc2c(F)cc(F)cc2F)cc1 [Example 139, 3-(4-FLUOROPHENYL)-2-(2,4,6-TRIFLUOROBENZYL)-7-(TRIFLUOROMETHYL)-2H-INDAZOLE]
103 | COC(=O)C[C@@H]1CCCN(c2ccc(-c3c4cccc(C(F)(F)F)c4nn3Cc3c(F)cc(F)cc3F)cc2)C1
138 to 139 | CCC(CC)n1nc2c(C(F)(F)F)cccc2c1-c1ccc(OC)cc1OC [Example 110, 3-(2,4-DIMETHOXYPHENYL)-2-(1-ETHYLPROPYL)-7-(TRIFLUOROMETHYL)-2H-INDAZOLE]
111 to 112 | COc1ccc(-c2c3cccc(C(F)(F)F)c3nn2CC(C)C)c(OC)c1 [Example 106, 3-(2,4-DIMETHOXYPHENYL)-2-ISOBUTYL-7-(TRIFLUOROMETHYL)-2H-INDAZOLE]
103 | COC(=O)C[C@H]1CCCN(c2ccc(-c3c4cccc(C(F)(F)F)c4nn3Cc3c(F)cc(F)cc3F)cc2)C1
103 | CC1CCCN(c2ccc(-c3c4cccc(C(F)(F)F)c4nn3Cc3c(F)cc(F)cc3F)cc2)C1 (stereo not drawn)
112 to 114 | Fc1ccc(-c2c3cccc(N4CCCC4)c3nn2Cc2ccc(F)cc2F)cc1 [Example 426, 2-(2,4-DIFLUOROBENZYL)-3-(4-FLUOROPHENYL)-7-PYRROLIDIN-1-YL-2H-INDAZOLE]
156 to 157 | COc1ccc(-c2c3cccc(C(F)(F)F)c3nn2CC2CCCCC2)c(OC)c1 [Example 107, 2-(CYCLOHEXYLMETHYL)-3-(2,4-DIMETHOXYPHENYL)-7-(TRIFLUOROMETHYL)-2H-INDAZOLE]
51 to 52 | COc1ccc(-c2c3cccc(C(F)(F)F)c3nn2C2CCC2)c(OC)c1 [Example 109, 2-CYCLOBUTYL-3-(2,4-DIMETHOXYPHENYL)-7-(TRIFLUOROMETHYL)-2H-INDAZOLE]
